The values that follow come from patent publication US20080234288A1, “Hcv Inhibiting Sulfonamides” (priority 2003, published 2008).

Structures are written as SMILES. Where a name gives a salt, the structure may show the parent alone.

The experiment relates to HCV replicon (NS3-NS5B regions of HCV type 1b) in Huh-7 luc/neo cells. Nature of the experiment: HCV replicon assay, stable replicon cell reporter assay (Huh-Luc, luciferase). It is filed as cell-based. As to conditions: incubation of three days, luciferase activity. The text has this: The compounds of the present invention were examined for activity in the inhibition of HCV RNA replication in a cellular assay. […] The cellular assay was based on a bicistronic expression construct, as described by Lohmann et al. (1999) Science vol. 285 pp. 110-113 with modifications described by Krieger et al. (2001) Journal of Virology 75: 4614-4624, in a multi-target screening strategy. In essence, the method is as follows.
The assay utilized the stably transfected cell line Huh-7 luc/neo (hereafter referred to as Huh-Luc; kindly provided by Dr Ralf Bartenschlager, Reblikon GmBh, Germany). This cell line harbors an RNA encoding a bicistronic expression construct comprising the wild type NS3-NS5B regions of HCV type 1b translated from an Internal Ribosome Entry Site (IRES) from encephalomyocarditis virus (EMCV), preceded by a reporter portion (FfL-luciferase), and a selectable marker portion (neo^R, neomycine phosphotransferase). The construct was bordered by 5′ and 3′ NTRs (non-translated regions) from HCV type 1b. Continued culture of the replicon cells in the presence of G418 (neo^R) is dependent on the replication of the HCV RNA. The stably transfected replicon cells that express HCV RNA, which replicates autonomously and to high levels, encoding inter alia luciferase, were used for screening the antiviral compounds.
The replicon cells were plated in 384 well plates in the presence of the test and control compounds which were added in various concentrations. Following an incubation of three days, HCV replication was measured by assaying luciferase activity (using standard luciferase assay substrates and reagents and a Perkin Elmer ViewLux™ ultraHTS microplate imager). Replicon cells in the control cultures have high luciferase expression in the absence of any inhibitor. The inhibitory activity of the compound on luciferase activity was monitored on the Huh-Luc cells, enabling a dose-response curve for each test compound. EC50 values were then calculated, which value represents the amount of the compound required to decrease by 50% the level of detected luciferase activity, or more specifically, the ability of the genetically linked HCV replicon RNA to replicate (Table 1).
In general terms: Replicon systems follow genome replication, usually without infectious particles.

Take `CC(C)CN(CC(O)C(Cc1ccccc1)NC(=O)OCc1cncs1)S(=O)(=O)c1ccc2nc(NC(=O)C3CCC(=O)N3)oc2c1` (stereo not shown) [Compound 23, [1-Benzyl-2-hydroxy-3-(isobutyl-{2-[(5-oxo-pyrrolidine-2-carbonyl)-amino]-benzooxazole-6-sulfonyl}-amino)-propyl]-carbamic acid thiazol-5-yl methyl ester]: the EC50 – broadly, the concentration needed to bring the measured effect to its halfway point – fell in the range of 10 to 32 µM.

On to `Cc1nc(-c2ccc(S(=O)(=O)N(CC(C)C)CC(O)C(Cc3ccccc3)NC(=O)OCc3cncs3)cc2)co1` (stereo not shown) [Compound 44, (1-Benzyl-2-hydroxy-3-{isobutyl-[4-(2-methyl-oxazol-4-yl)-benzenesulfonyl]-amino}-propyl)-carbamic acid thiazol-5-ylmethyl ester], for which the EC50 (Hepatitis C virus, Huh-7, 72 h) lay within 10 to 32 µM.

As to `CC(C)CN(CC(O)C(Cc1ccccc1)NC(=O)OCc1cncs1)S(=O)(=O)c1ccc2nc[nH]c2c1` (stereo not shown) [Compound 20, {3-[(3H-Benzoimidazole-5-sulfonyl)-isobutyl-amino]-1-benzyl-2-hydroxy-propyl}-carbamic acid thiazol-5-ylmethyl ester], the EC50 (Hepatitis C virus, Huh-7, 72 h) was 10 to 32 µM.

Take `CC(C)CN(CC(O)C(Cc1ccccc1)NC(=O)OCc1cncs1)S(=O)(=O)c1ccc2nc(N)oc2c1` (stereo not shown) [Compound 19, {3-[(2-Amino-benzooxazole-6-sulfonyl)-isobutyl-amino]-1-benzyl-2-hydroxy-propyl}-carbamic acid thiazol-5-ylmethyl ester]: the EC50 fell in the range of 2 to 10 µM.

`CC(C)CN(CC(O)C(Cc1ccccc1)NC(=O)OCc1cncs1)S(=O)(=O)c1ccc2ncn(Cc3ccccc3)c2c1` (stereo not shown) [Compound 12, [1-Benzyl-3-[(3-benzyl-3H-benzoimidazole-5-sulfonyl)-isobutyl-amino]-2-hydroxy-propyl}-carbamic acid thiazol-5-ylmethyl ester] had a concentration for a half-maximal effect (EC50) (Hepatitis C virus, Huh-7, 72 h) of 2 to 10 µM.

With `CC(C)CN(CC(O)C(Cc1ccccc1)NC(=O)OCc1cncs1)S(=O)(=O)c1ccc2nc(N(C)C(=O)c3ccccn3)oc2c1` (stereo not shown) [Compound 36, [1-Benzyl-2-hydroxy-3-(isobutyl-{2-[methyl-(pyridine-2-carbonyl)-amino]-benzooxazole-6-sulfonyl}-amino)-propyl]-carbamic acid thiazol-5-ylmethyl ester], the EC50 (Hepatitis C virus, Huh-7, 72 h) fell in the range of 10 to 32 µM.

As to `CC(C)CN(CC(O)C(Cc1ccccc1)NC(=O)OCc1cncs1)S(=O)(=O)c1ccc2nc(NC(=O)c3ccoc3)oc2c1` (stereo not shown) [Compound 25, [1-Benzyl-3-({2-[(furan-3-carbonyl)-amino]-benzooxazole-6-sulfonyl}-isobutyl-amino)-2-hydroxy-propyl]-carbamic acid thiazol-5-ylmethyl ester], the EC50 (Hepatitis C virus, Huh-7, 72 h) was under 2 µM.

The compound `CC(C)CN(CC(O)C(Cc1ccccc1)NC(=O)OCc1cncs1)S(=O)(=O)c1ccc2nc(NC(=O)c3cccnc3)oc2c1` (stereo not shown) [Compound 4, [1-Benzyl-2-hydroxy-3-(isobutyl-{2-[(pyridine-3-carbonyl)-amino]-benzooxazole-6-sulfonyl}-amino)-propyl]-carbamic acid thiazol-5-ylmethyl ester] registered an EC50 (Hepatitis C virus, Huh-7, 72 h) of 2 to 10 µM.

For the compound `CC(C)CN(CC(O)C(Cc1ccccc1)NC(=O)OCc1cncs1)S(=O)(=O)c1ccc2nc(N(C)C(=O)c3ccnc(Cl)c3)oc2c1` (stereo not shown) [Compound 39, [1-Benzyl-3-({2-[(2-chloro-pyridine-4-carbonyl)-methyl-amino]-benzooxazole-6-sulfonyl}-isobutyl-amino)-2-hydroxy-propyl]-carbamic acid thiazol-5-ylmethyl ester], for the setting “Hepatitis C virus, Huh-7, 72 h”, the EC50 lay in the range of 10 to 32 µM.

`CC(C)CN(CC(O)C(Cc1ccccc1)NC(=O)OCc1cncs1)S(=O)(=O)c1ccc2nc(NCCCN(C)C)sc2c1` (stereo not shown) [Compound 17, (1-Benzyl-3-{[2-(3-dimethylamino-propylamino)-benzo-thiazole-6-sulfonyl]-isobutyl-amino}-2-hydroxy-propyl)-carbamic acid thiazol-5-ylmethyl ester] yielded an EC50 (Hepatitis C virus, Huh-7, 72 h) of 10 to 32 µM.

`CC(C)CN(CC(O)C(Cc1ccccc1)NC(=O)OCc1cncs1)S(=O)(=O)c1ccc2nc(NC(=O)C3CCCN3C)oc2c1` (stereo not shown) [Compound 11, [1-Benzyl-2-hydroxy-3-(isobutyl-{2-[(1-methyl-pyrrolidine-2-carbonyl)-amino]-benzooxazole-6-sulfonyl}-amino)-propyl]-carbamic acid thiazol-5-ylmethyl ester] gave an EC50 (Hepatitis C virus, Huh-7, 72 h) of 2 to 10 µM.

For the compound `CC(C)CN(CC(O)C(Cc1ccccc1)NC(=O)OCc1cncs1)S(=O)(=O)c1ccc2nc(N(C)C(=O)c3ccoc3)oc2c1` (stereo not shown) [Compound 10, [1-Benzyl-3-({2-[(furan-3-carbonyl)-methyl-amino]-benzo-oxazole-6-sulfonyl}-isobutyl-amino)-2-hydroxy-propyl]-carbamic acid thiazol-5-ylmethyl ester], the EC50 (Hepatitis C virus, Huh-7, 72 h) lay within 2 to 10 µM.

In turn, `CC(C)CN(CC(O)C(Cc1ccccc1)NC(=O)OCc1cncs1)S(=O)(=O)c1ccc2nc(NCCN3CCCC3)sc2c1` (stereo not shown) [Compound 15, (1-Benzyl-2-hydroxy-3-{isobutyl-[2-(2-pyrrolidin-1-yl-ethyl-amino)-benzothiazole-6-sulfonyl]-amino}-propyl)-carbamic acid thiazol-5-ylmethyl ester] had an EC50 (Hepatitis C virus, Huh-7, 72 h) of 2 to 10 µM.

For `CC(C)CN(CC(O)C(Cc1ccccc1)NC(=O)OCc1cncs1)S(=O)(=O)c1ccc2ncn(CC(C)C)c2c1` (stereo not shown) [Compound 42, {1-Benzyl-2-hydroxy-3-[isobutyl-(3-isobutyl-3H-benzo-imidazole-5-sulfonyl)-amino]-propyl}-carbamic acid thiazol-5-ylmethyl ester], the EC50 (Hepatitis C virus, Huh-7, 72 h) is 2 to 10 µM.

Take `CC(C)CN(CC(O)C(Cc1ccccc1)NC(=O)OCc1cncs1)S(=O)(=O)c1ccc2nc(N(C)C(=O)C3CCCN3C)oc2c1` (stereo not shown) [Compound 40, [1-Benzyl-2-hydroxy-3-(isobutyl-{2-[methyl-(1-methyl-pyrrolidine-2-carbonyl)-amino]-benzooxazole-6-sulfonyl}-amino)-propyl]-carbamic acid thiazol-5-ylmethyl ester trifluoroacetate salt]: for the setting “Hepatitis C virus, Huh-7, 72 h”, the EC50 is 10 to 32 µM.

In the case of `CC(C)CN(CC(O)C(Cc1ccccc1)NC(=O)OCc1cncs1)S(=O)(=O)c1ccc2nc(N)oc2c1` (stereo not shown) [Compound 45, {3-[(2-Amino-benzooxazole-6-sulfonyl)-isobutyl-amino]-1-benzyl-2-hydroxy-propyl}-carbamic acid thiazol-5-ylmethyl ester], the EC50 (Hepatitis C virus, Huh-7, 72 h) was 2 to 10 µM.

`CC(C)CN(CC(O)C(Cc1ccccc1)NC(=O)OCc1cncs1)S(=O)(=O)c1ccc2nc(NC(=O)c3ccccn3)oc2c1` (stereo not shown) [Compound 27, [1-Benzyl-2-hydroxy-3-(isobutyl-{2-[(pyridine-2-carbonyl)-amino]-benzooxazole-6-sulfonyl}-amino)-propyl]-carbamic acid thiazol-5-ylmethyl ester] registered an EC50 (Hepatitis C virus, Huh-7, 72 h) of 2 to 10 µM.

As for `CC(C)CN(CC(O)C(Cc1ccccc1)NC(=O)OCc1cncs1)S(=O)(=O)c1ccc2nc(N3CCCC3)oc2c1` (stereo not shown) [Compound 5, {1-Benzyl-2-hydroxy-3-[isobutyl-(2-pyrrolidin-1-yl-benzo-oxazole-6-sulfonyl)-amino]-propyl}-carbamic acid thiazol-5-ylmethyl ester], under “Hepatitis C virus, Huh-7, 72 h”, the EC50 fell in the range of 2 to 10 µM.

On to `CC(C)CN(CC(O)C(Cc1ccccc1)NC(=O)OCc1cncs1)S(=O)(=O)c1ccc2nc(NC(=O)CN(C)CCN3CCCC3)oc2c1` (stereo not shown) [Compound 32, {1-Benzyl-2-hydroxy-3-[isobutyl-(2-{2-[methyl-(2-pyrrolidin-1-yl-ethyl)-amino]-acetylamino}-benzooxazole-6-sulfonyl)-amino]-propyl}-carbamic acid thiazol-5-ylmethyl ester], for which, under “Hepatitis C virus, Huh-7, 72 h”, the EC50 is 10 to 32 µM.

For `CC(=O)Nc1nc2ccc(S(=O)(=O)N(CC(C)C)CC(O)C(Cc3ccccc3)NC(=O)OCc3cncs3)cc2o1` (stereo not shown) [Compound 1, {3-[(2-Acetylamino-benzooxazole-6-sulfonyl)-isobutyl-amino]-1-benzyl-2-hydroxy-propyl}-carbamic acid thiazol-5-ylmethyl ester], for the setting “Hepatitis C virus, Huh-7, 72 h”, the EC50 was in the range of 2 to 10 µM.

In turn, `Nc1nc2ccc(S(=O)(=O)N(Cc3ccccn3)CC(O)C(Cc3ccccc3)NC(=O)OCc3cncs3)cc2o1` (stereo not shown) [Compound 22, {3-[(2-Amino-benzooxazole-6-sulfonyl)-pyridin-2-ylmethyl-amino]-1-benzyl-2-hydroxy-propyl}-carbamic acid thiazol-5-ylmethyl ester trifluoroacetate salt] displayed an EC50 (Hepatitis C virus, Huh-7, 72 h) of over 32 µM.

With `CC(C)CN(CC(O)C(Cc1ccccc1)NC(=O)OCc1cncs1)S(=O)(=O)c1ccc2nc(N3CCNCC3)oc2c1` (stereo not shown) [Compound 30, {1-Benzyl-2-hydroxy-3-[isobutyl-(2-piperazin-1-yl-benzo-oxazole-6-sulfonyl)-amino]-propyl}-carbamic acid thiazol-5-ylmethyl ester], the EC50 (Hepatitis C virus, Huh-7, 72 h) was 2 to 10 µM.
